# Experimental data as given in ChEMBL document CHEMBL5352486, “Design, synthesis, in vitro - In vivo biological evaluation of novel thiazolopyrimidine compounds as antileishmanial agent with PTR1 inhibition” (Eur J Med Chem, 2023).
# Calls of active or inactive are those of the source. The rule behind the calls is not given here.
# Assays:
# [1] = system: Leishmania tropica; test: Antileishmanial activity against Leishmania tropica MHOM/A7/1974/SAF-K27 incubated for 48 hrs by XTT method; assay type: functional, organism-based; settings: MHOM/A7/1974/SAF-K27, 48 h
# [2] = system: Leishmania infantum; test: Antileishmanial activity against Leishmania infantum infected in BALB/c mouse model of cutaneous leishmaniasis assessed as footpad lesion development at 50 mg/kg/day, ID administered for 21 days and measured after 10 weeks by Giemsa staining based analysis (reference value: 3.40 +/- 0.03); assay type: functional; settings: time 21 day
# [3] = system: Leishmania infantum; test: Antileishmanial activity against Leishmania infantum infected in BALB/c mouse model of visceral leishmaniasis assessed as footpad lesion development at 50 mg/kg/day, IM administered for 21 days and measured after 3 weeks by Giemsa staining based analysis (reference value: 28.94 +/- 0.59); assay type: functional; settings: time 21 day
# [4] = system: Leishmania infantum; test: Antileishmanial activity against Leishmania infantum infected in BALB/c mouse model of visceral leishmaniasis assessed as footpad lesion development at 50 mg/kg/day, IM administered for 21 days and measured after 1 week by Giemsa staining based analysis (reference value: 30.43 +/- 0.60); assay type: functional; settings: time 21 day
# [5] = system: DHFR (human) versus PTR1 (Leishmania major); test: Selectivity index, ratio of IC50 for human DHFR to IC50 for Leishmania major PTR1; assay type: toxicity; settings: human DHFR enzyme and Leishmania major PTR1 enzyme, read-out: Ratio IC50
# [6] = system: Leishmania infantum; test: Antileishmanial activity against Leishmania infantum infected in BALB/c mouse model of visceral leishmaniasis assessed as footpad lesion development at 50 mg/kg/day, IM administered for 21 days and measured after 7 weeks by Giemsa staining based analysis (reference value: 24.85 +/- 0.88); assay type: functional; settings: time 21 day
# [7] = system: Leishmania infantum; test: Antileishmanial activity against Leishmania infantum infected in BALB/c mouse model of cutaneous leishmaniasis assessed as footpad lesion development at 50 mg/kg/day, ID administered for 21 days and measured after 12 weeks by Giemsa staining based analysis (reference value: 3.61 +/- 0.03); assay type: functional; settings: time 21 day
# [8] = system: Leishmania infantum; test: Antileishmanial activity against Leishmania infantum infected in BALB/c mouse model of cutaneous leishmaniasis assessed as footpad lesion development at 50 mg/kg/day, ID administered for 21 days and measured after 28 weeks by Giemsa staining based analysis (reference value: 4.92 +/- 0.01); assay type: functional; settings: time 21 day
# [9] = system: Leishmania infantum; test: Antileishmanial activity against Leishmania infantum infected in BALB/c mouse model of cutaneous leishmaniasis assessed as parasite growth in foodpad at 50 mg/kg/day, ID administered for 21 days; assay type: functional, organism-based; settings: time 21.0 day
# [10] = system: Leishmania infantum; test: Antileishmanial activity against Leishmania infantum infected in BALB/c mouse model of visceral leishmaniasis assessed as footpad lesion development at 50 mg/kg/day, IM administered for 21 days and measured after 9 weeks by Giemsa staining based analysis (reference value: 22.75 +/- 0.71); assay type: functional; settings: time 21 day
# [11] = system: Leishmania infantum; test: Antileishmanial activity against Leishmania infantum infected in BALB/c mouse model of cutaneous leishmaniasis assessed as footpad lesion development at 50 mg/kg/day, ID administered for 21 days and measured after 14 weeks by Giemsa staining based analysis (reference value: 3.88 +/- 0.03); assay type: functional; settings: time 21 day
# [12] = system: Leishmania infantum; test: Antileishmanial activity against Leishmania infantum infected in BALB/c mouse model of visceral leishmaniasis assessed as footpad lesion development at 50 mg/kg/day, IM administered for 21 days and measured after 2 weeks by Giemsa staining based analysis (reference value: 29.73 +/- 0.63); assay type: functional; settings: time 21 day
# [13] = system: L929; test: (§1) Cytotoxicity against mouse L929 cells by alamar blue method; assay type: toxicity, cell-based; settings: l929
# [14] = as §1; assay type: toxicity, cell-based; settings: mouse, L929 cells
# [15] = system: Leishmania infantum; test: Antileishmanial activity against Leishmania infantum infected in BALB/c mouse model of visceral leishmaniasis assessed as footpad lesion development at 50 mg/kg/day, IM administered for 21 days and measured after 11 weeks by Giemsa staining based analysis (reference value: 20.71 +/- 0.48); assay type: functional; settings: time 21 day
# [16] = system: Leishmania infantum; test: Antileishmanial activity against Leishmania infantum infected in BALB/c mouse model of cutaneous leishmaniasis assessed as footpad lesion development at 50 mg/kg/day, ID administered for 21 days and measured after 22 weeks by Giemsa staining based analysis (reference value: 4.71 +/- 0.04); assay type: functional; settings: time 21 day
# [17] = system: Leishmania infantum; test: Antileishmanial activity against Leishmania infantum infected in BALB/c mouse model of visceral leishmaniasis assessed as parasite growth in liver at 50 mg/kg/day, IM administered for 21 days; assay type: functional, organism-based; settings: time 21.0 day
# [18] = system: Leishmania infantum; test: Antileishmanial activity against Leishmania infantum infected in BALB/c mouse model of cutaneous leishmaniasis assessed as footpad lesion development at 50 mg/kg/day, ID administered for 21 days and measured after 20 weeks by Giemsa staining based analysis (reference value: 4.54 +/- 0.04); assay type: functional; settings: time 21 day
# [19] = target: T1, Pteridine reductase 1 (Leishmania major, UniProt Q01782); test: Inhibition of recombinant Leishmania major PTR1 expressed in Escherichia coli BL21 using folic acid as substrate in presence of NADPH
# T1 sequence (Q01782 whole entry): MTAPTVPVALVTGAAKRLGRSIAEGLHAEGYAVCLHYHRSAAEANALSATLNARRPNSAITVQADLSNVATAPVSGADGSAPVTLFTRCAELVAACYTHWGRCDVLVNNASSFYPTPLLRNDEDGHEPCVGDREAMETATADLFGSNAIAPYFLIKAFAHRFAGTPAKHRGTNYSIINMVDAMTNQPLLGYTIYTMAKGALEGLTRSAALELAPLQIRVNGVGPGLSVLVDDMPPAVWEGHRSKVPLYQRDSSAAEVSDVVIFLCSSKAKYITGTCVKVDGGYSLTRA
# [20] = (§2) Cytotoxicity against mouse RAW264.7 cells by alamar blue method; assay type: toxicity, cell-based; settings: mouse, RAW264.7 cells
# [21] = system: RAW264.7; test: as §2; assay type: toxicity, cell-based; settings: raw264.7
# [22] = system: Leishmania infantum; test: Antileishmanial activity against Leishmania infantum infected in BALB/c mouse model of visceral leishmaniasis assessed as footpad lesion development at 50 mg/kg/day, IM administered for 21 days and measured after 4 weeks by Giemsa staining based analysis (reference value: 28.01 +/- 0.65); assay type: functional; settings: time 21 day
# [23] = system: Leishmania infantum; test: Antileishmanial activity against Leishmania infantum infected in BALB/c mouse model of cutaneous leishmaniasis assessed as footpad lesion development at 50 mg/kg/day, ID administered for 21 days and measured after 16 weeks by Giemsa staining based analysis (reference value: 4.20 +/- 0.03); assay type: functional; settings: time 21 day
# [24] = system: Leishmania infantum; test: Antileishmanial activity against Leishmania infantum infected in BALB/c mouse model of visceral leishmaniasis assessed as footpad lesion development at 50 mg/kg/day, IM administered for 21 days and measured after 8 weeks by Giemsa staining based analysis (reference value: 23.84 +/- 0.93); assay type: functional; settings: time 21 day
# [25] = system: Leishmania infantum; test: Antileishmanial activity against Leishmania infantum infected in BALB/c mouse model of cutaneous leishmaniasis assessed as parasite growth in spleen at 50 mg/kg/day, ID administered for 21 days; assay type: functional, organism-based; settings: time 21.0 day
# [26] = system: Leishmania infantum; test: Antileishmanial activity against Leishmania infantum infected in BALB/c mouse model of cutaneous leishmaniasis assessed as footpad lesion development at 50 mg/kg/day, ID administered for 21 days and measured after 4 weeks by Giemsa staining based analysis (reference value: 1.90 +/- 0.03); assay type: functional; settings: time 21 day
# [27] = system: Leishmania infantum; test: Antileishmanial activity against Leishmania infantum MHOM/TN/1980/IPT1 incubated for 48 hrs by XTT method; assay type: functional, organism-based; settings: MHOM/TN/1980/IPT1, 48 h
SMILES,IC50 [1],Activity [2],Activity [3],Activity [4],selectivity ratio [5],Activity [6],Activity [7],Activity [8],Activity [9],Activity [10],Activity [11],Activity [12],log10 IC50 (µg/mL) [13],IC50 [14],Activity [15],Activity [16],Activity [17],Activity [18],IC50 [19],IC50 [20],also measured
CN(C)c1ncc2nc(NC(=O)c3ccc(Cl)c([N+](=O)[O-])c3)sc2n1,6.68 µg/mL,3.37,28.71,30.38,7.02,26.77,3.61,3.71,Active,28.13,3.83,29.49,1.32,21 µg/mL,29.85,4.67,Active,4.53,680 µM,8.75 µg/mL,log10 IC50 (µg/mL) [21]: 0.94; Activity [22]: 27.83; Activity [23]: 3.83; Activity [24]: 27.42; Activity [25]: Active; Activity [26]: 1.89; IC50 [27]: 6.77 µg/mL
CCOC(=O)N1CCN(c2ncc3nc(NC(=O)c4ccc(Cl)c(Cl)c4)sc3n2)CC1,0.04 µg/mL,3.39,28.71,30.63,42.6,26.22,3.61,3.8,Active,27.35,3.81,29.54,1.15,14.1 µg/mL,28.55,4.69,Active,4.52,123 µM,15 µg/mL,log10 IC50 (µg/mL) [21]: 1.18; Activity [22]: 27.85; Activity [23]: 4.2; Activity [24]: 26.84; Activity [25]: Active; Activity [26]: 1.88; IC50 [27]: 0.042 µg/mL
CN1CCN(c2ncc3nc(NC(=O)c4ccc(Cl)c(Cl)c4)sc3n2)CC1,7.81 µg/mL,3.41,28.73,30.3,312,24.43,3.61,4.83,inactive,22.18,3.89,29.53,1.44,27.7 µg/mL,20.13,4.69,inactive,4.53,21.3 µM,16.4 µg/mL,log10 IC50 (µg/mL) [21]: 1.22; Activity [22]: 27.9; Activity [23]: 4.21; Activity [24]: 23.36; Activity [25]: Active; Activity [26]: 1.88; IC50 [27]: 8.28 µg/mL
